# In PubChem BioAssay AID1259407 (Chemical Carcinogenesis Research Information System (CCRIS), 2018):
# Calls of active or inactive are those of the source. No rule for the calls is given here.
# Test system: CCRIS mutagenicity, Ames/micronucleus/aberration tests
# Test: CCRIS mutagenicity studies
# [1] = Test System: AMES SALMONELLA TYPHIMURIUM, Strain/Indicator: TA98, Metabolic Activation: RAT, LIVER, S-9, AROCLOR 1254, Method: STANDARD PLATE
# [2] = Test System: AMES SALMONELLA TYPHIMURIUM, Strain/Indicator: TA100, Metabolic Activation: NONE, Method: STANDARD PLATE
# [3] = Test System: AMES SALMONELLA TYPHIMURIUM, Strain/Indicator: TA1535, Metabolic Activation: RAT, LIVER, S-9, AROCLOR 1254, Method: STANDARD PLATE
# [4] = Test System: AMES SALMONELLA TYPHIMURIUM, Strain/Indicator: TA98, Metabolic Activation: NONE, Method: PREINCUBATION
# [5] = Test System: AMES SALMONELLA TYPHIMURIUM, Strain/Indicator: TA100, Metabolic Activation: NONE, Method: PREINCUBATION
smiles,measurement,setting,value
CC(C)=CC1C(C(=O)OCc2cccc(Oc3ccccc3)c2)C1(C)C (stereo unspecified),mutagenic call,"Test System: AMES SALMONELLA TYPHIMURIUM, Strain/Indicator: TA98",inactive; negative
same,mutagenic call,"Test System: AMES SALMONELLA TYPHIMURIUM, Strain/Indicator: TA98, Metabolic Activation: NONE",inactive; negative
same,mutagenic call,"Test System: AMES SALMONELLA TYPHIMURIUM, Strain/Indicator: TA98, Metabolic Activation: NONE, Method: STANDARD PLATE",inactive; negative
same,mutagenic call,[1],inactive; negative
same,mutagenic call,"Test System: AMES SALMONELLA TYPHIMURIUM, Strain/Indicator: TA100",active; positive
same,mutagenic call,"Test System: AMES SALMONELLA TYPHIMURIUM, Strain/Indicator: TA100, Metabolic Activation: NONE",active; positive
same,mutagenic call,[2],inactive; negative
same,mutagenic call,"Test System: AMES SALMONELLA TYPHIMURIUM, Strain/Indicator: TA100, Metabolic Activation: RAT, LIVER, S-9, AROCLOR 1254, Method: STANDARD PLATE",inactive; negative
same,mutagenic call,"Test System: AMES SALMONELLA TYPHIMURIUM, Strain/Indicator: TA1535, Metabolic Activation: NONE, Method: STANDARD PLATE",inactive; negative
same,mutagenic call,[3],inactive; negative
same,mutagenic call,"Test System: AMES SALMONELLA TYPHIMURIUM, Strain/Indicator: TA1537, Metabolic Activation: NONE, Method: STANDARD PLATE",inactive; negative
same,mutagenic call,"Test System: AMES SALMONELLA TYPHIMURIUM, Strain/Indicator: TA1537, Metabolic Activation: RAT, LIVER, S-9, AROCLOR 1254, Method: STANDARD PLATE",inactive; negative
same,mutagenic call,"Test System: E. COLI, Strain/Indicator: WP2, Metabolic Activation: NONE, Method: STANDARD PLATE",inactive; negative
same,mutagenic call,"Test System: E. COLI, Strain/Indicator: WP2, Metabolic Activation: RAT, LIVER, S-9, AROCLOR 1254, Method: STANDARD PLATE",inactive; negative
Cc1ccc(/C(C#N)=C\C=C\c2ccccc2[N+](=O)[O-])cc1,mutagenic call,"Test System: AMES SALMONELLA TYPHIMURIUM, Strain/Indicator: TA97A, Metabolic Activation: NONE, Method: STANDARD PLATE",active; positive
CNC(=O)Oc1ccc(-c2ccccc2)cc1,mutagenic call,[1],inactive; negative
same,mutagenic call,[3],active; positive
CC(=O)O[C@H]1[C@H](OC(C)=O)COC(Nc2ccc([N+](=O)[O-])cc2)[C@@H]1OC(C)=O (stereo partly specified),mutagenic call,[2],inactive; negative
Nc1ncnc2c1ncn2Cc1ccc([N+](=O)[O-])cc1,mutagenic call,"Test System: AMES SALMONELLA TYPHIMURIUM, Strain/Indicator: TA98(1,8-DNP), Metabolic Activation: NONE, Method: PREINCUBATION",inactive; negative
same,mutagenic call,"Test System: AMES SALMONELLA TYPHIMURIUM, Strain/Indicator: TA98(1,8-DNP), Metabolic Activation: RAT, LIVER, S-9, PCB, Method: PREINCUBATION",inactive; negative
same,mutagenic call,"Test System: AMES SALMONELLA TYPHIMURIUM, Strain/Indicator: TA98(NR), Metabolic Activation: NONE, Method: PREINCUBATION",inactive; negative
same,mutagenic call,"Test System: AMES SALMONELLA TYPHIMURIUM, Strain/Indicator: TA98(NR), Metabolic Activation: RAT, LIVER, S-9, PCB, Method: PREINCUBATION",inactive; negative
same,mutagenic call,[4],inactive; negative
same,mutagenic call,"Test System: AMES SALMONELLA TYPHIMURIUM, Strain/Indicator: TA98, Metabolic Activation: RAT, LIVER, S-9, PCB, Method: PREINCUBATION",inactive; negative
same,mutagenic call,"Test System: AMES SALMONELLA TYPHIMURIUM, Strain/Indicator: TA100(1,8-DNP), Metabolic Activation: NONE, Method: PREINCUBATION",inactive; negative
same,mutagenic call,"Test System: AMES SALMONELLA TYPHIMURIUM, Strain/Indicator: TA100(1,8-DNP), Metabolic Activation: RAT, LIVER, S-9, PCB, Method: PREINCUBATION",inactive; negative
same,mutagenic call,"Test System: AMES SALMONELLA TYPHIMURIUM, Strain/Indicator: TA100(NR), Metabolic Activation: NONE, Method: PREINCUBATION",inactive; negative
same,mutagenic call,"Test System: AMES SALMONELLA TYPHIMURIUM, Strain/Indicator: TA100(NR), Metabolic Activation: RAT, LIVER, S-9, PCB, Method: PREINCUBATION",inactive; negative
same,mutagenic call,[5],inactive; negative
same,mutagenic call,"Test System: AMES SALMONELLA TYPHIMURIUM, Strain/Indicator: TA100, Metabolic Activation: RAT, LIVER, S-9, PCB, Method: PREINCUBATION",inactive; negative
same,mutagenic call,"Test System: AMES SALMONELLA TYPHIMURIUM, Strain/Indicator: YG1020, Metabolic Activation: NONE, Method: PREINCUBATION",inactive; negative
same,mutagenic call,"Test System: AMES SALMONELLA TYPHIMURIUM, Strain/Indicator: YG1020, Metabolic Activation: RAT, LIVER, S-9, PCB, Method: PREINCUBATION",inactive; negative
same,mutagenic call,"Test System: AMES SALMONELLA TYPHIMURIUM, Strain/Indicator: YG1021, Metabolic Activation: NONE, Method: PREINCUBATION",active; positive
same,mutagenic call,"Test System: AMES SALMONELLA TYPHIMURIUM, Strain/Indicator: YG1024, Metabolic Activation: NONE, Method: PREINCUBATION",inactive; negative
same,mutagenic call,"Test System: AMES SALMONELLA TYPHIMURIUM, Strain/Indicator: YG1024, Metabolic Activation: RAT, LIVER, S-9, PCB, Method: PREINCUBATION",inactive; negative
same,mutagenic call,"Test System: AMES SALMONELLA TYPHIMURIUM, Strain/Indicator: YG1025, Metabolic Activation: NONE, Method: PREINCUBATION",inactive; negative
same,mutagenic call,"Test System: AMES SALMONELLA TYPHIMURIUM, Strain/Indicator: YG1025, Metabolic Activation: RAT, LIVER, S-9, PCB, Method: PREINCUBATION",inactive; negative
same,mutagenic call,"Test System: AMES SALMONELLA TYPHIMURIUM, Strain/Indicator: YG1026, Metabolic Activation: NONE, Method: PREINCUBATION",inactive; negative
same,mutagenic call,"Test System: AMES SALMONELLA TYPHIMURIUM, Strain/Indicator: YG1026, Metabolic Activation: RAT, LIVER, S-9, PCB, Method: PREINCUBATION",inactive; negative
same,mutagenic call,"Test System: AMES SALMONELLA TYPHIMURIUM, Strain/Indicator: YG1029, Metabolic Activation: NONE, Method: PREINCUBATION",inactive; negative
same,mutagenic call,"Test System: AMES SALMONELLA TYPHIMURIUM, Strain/Indicator: YG1029, Metabolic Activation: RAT, LIVER, S-9, PCB, Method: PREINCUBATION",inactive; negative
Cc1c[nH]c(=S)[nH]c1=O,mutagenic call,"Test System: AMES SALMONELLA TYPHIMURIUM, Strain/Indicator: TA97, Metabolic Activation: HAMSTER, LIVER, S-9, AROCLOR 1254 (10 OR 30%), Method: PREINCUBATION",inactive; negative
same,mutagenic call,"Test System: AMES SALMONELLA TYPHIMURIUM, Strain/Indicator: TA97, Metabolic Activation: NONE, Method: PREINCUBATION",inactive; negative
same,mutagenic call,"Test System: AMES SALMONELLA TYPHIMURIUM, Strain/Indicator: TA97, Metabolic Activation: RAT, LIVER, S-9, AROCLOR 1254 (10 OR 30%), Method: PREINCUBATION",inactive; negative
same,mutagenic call,"Test System: AMES SALMONELLA TYPHIMURIUM, Strain/Indicator: TA98, Metabolic Activation: HAMSTER, LIVER, S-9, AROCLOR 1254 (10 OR 30%), Method: PREINCUBATION",inactive; negative
same,mutagenic call,[4],inactive; negative
same,mutagenic call,"Test System: AMES SALMONELLA TYPHIMURIUM, Strain/Indicator: TA98, Metabolic Activation: RAT, LIVER, S-9, AROCLOR 1254 (10 OR 30%), Method: PREINCUBATION",inactive; negative
same,mutagenic call,"Test System: AMES SALMONELLA TYPHIMURIUM, Strain/Indicator: TA100, Metabolic Activation: HAMSTER, LIVER, S-9, AROCLOR 1254 (10 OR 30%), Method: PREINCUBATION",inactive; negative
same,mutagenic call,[5],inactive; negative
same,mutagenic call,"Test System: AMES SALMONELLA TYPHIMURIUM, Strain/Indicator: TA100, Metabolic Activation: RAT, LIVER, S-9, AROCLOR 1254 (10 OR 30%), Method: PREINCUBATION",inactive; negative
same,mutagenic call,"Test System: AMES SALMONELLA TYPHIMURIUM, Strain/Indicator: TA1535, Metabolic Activation: HAMSTER, LIVER, S-9, AROCLOR 1254 (10 OR 30%), Method: PREINCUBATION",inactive; negative
same,mutagenic call,"Test System: AMES SALMONELLA TYPHIMURIUM, Strain/Indicator: TA1535, Metabolic Activation: NONE, Method: PREINCUBATION",inactive; negative
same,mutagenic call,"Test System: AMES SALMONELLA TYPHIMURIUM, Strain/Indicator: TA1535, Metabolic Activation: RAT, LIVER, S-9, AROCLOR 1254 (10 OR 30%), Method: PREINCUBATION",inactive; negative
NC(=O)N(CCCl)N=O,mutagenic call,"Test System: CHINESE HAMSTER V-79, Strain/Indicator: V-79/6-THIOGUANINE, Metabolic Activation: NONE, Method: STANDARD PLATE",active; positive
same,mutagenic call,"Test System: E. COLI B, Strain/Indicator: H/R30R, Metabolic Activation: NONE",active; positive
same,mutagenic call,"Test System: E. COLI B, Strain/Indicator: HS30R, Metabolic Activation: NONE",active; positive
